Experimental data from patent publication US20230251278A1, “ACQUISITION METHOD OF VALUE RELATING TO TRIGLYCERIDE METABOLIC CAPACITY, PRESENTATION METHOD OF DISEASE INFORMATION, PRESENTATION METHOD OF DISEASE DIFFERENTIATION INFORMATION, PRESENTATION METHOD OF THERAPY EFFICACY INFORMATION, PRESENTATION METHOD OF THERAPEUTIC EFFECT INFORMATION, TEST REAGENT …” (OSAKA UNIVERSITY, priority 2020, published 2023).

Columns and labels:
[1] = system: leucocytes (neutrophils) of the case 1 patient; assay: Ability of leucocytes to excrete Alexa Fluor 680-BMPP before and after tricaprin treatment; assay type: in vivo, human
Procedure: Next, the abilities for taking up and for excreting the Alexa Fluor™ 680-BMPP were compared using whole blood collected from the patients in the case 1 described in the above 6-2. before and after the tricaprin treatment.
Preparation of the leucocyte and measurement of the abilities for taking up and for excreting the Alexa Fluor™ 680-BMPP using the leucocyte cells were performed according to the experimental examples.

[2] = system: triglyceride deposit-type atherosclerosis of the coronary artery; assay: MCT dietary therapy: coronary artery CT evaluation of fat accumulated in coronary arteries; assay type: in vivo, human
Procedure: A person with genetic ATGL (Adipose triglyceride lipase) deficiency. Since it was confirmed that the patient was suffering from triglyceride deposit-type atherosclerosis by coronary CT inspection, MCT dietary therapy was started. The patient ingested 6 to 9 g of tricaprin as the MCT per 1 day, 3 times a day after meals for 50 days.
Before the start of the MCT dietary therapy and after 50 days from the start of the MCT dietary therapy, normal coronary artery CT was performed to acquire a three-dimensional DICOM image of the left anterior descending branch. The samples were resampled in 0.1 mm^3 of voxels and layer-by-layer coloring was performed based on intra-voxel CT values. Smoothing was performed between voxels. The layer-by-layer coloring was performed as follows.
Light gray: between −25 HU to 0 HU (fat content is high) Middle gray 0 HU to 40 HU (fat content is medium) Dark gray: 40 HU to 125 HU (no fat) (iii) Results
A person who has suffered from refractory angina pectoris for years. Even when a combination treatment of a plurality of antianginal drugs and statins or the like was performed, the angina pectoris was rather exacerbated. Since it was confirmed that the patient was suffering from triglyceride deposit-type atherosclerosis by coronary CT inspection, MCT dietary therapy was started. The patient ingested 1.5 g of tricaprin as the MCT per 1 day, 3 times a day after meals for 4 years.
Before the start of the MCT dietary therapy and after 4 years from the start of the MCT dietary therapy, normal coronary artery CT was performed, and the layer-by-layer coloring of the inside of the left anterior descending branch was performed in the same manner as described in the case 1.

[3] = system: leucocytes (neutrophils, monocytes, lymphocytes); assay: Influence of excretion time on Alexa Fluor 680-BMPP excretion amount (FACS); assay type: cell-based, human; settings: leucocytes of two healthy individuals; 0.067 μM; 37° C.; histograms did not shift from 10 to 120 minutes
Procedure: 6 ml of each whole blood collected from two healthy individuals using the blood collection tube containing heparin was added with the HetaSep (Veritas Corporation) in an amount of one fifth of the whole blood, leucocytes were collected according to the manufacturer's instruction, and the cells were resuspended in 2.1 ml of the DMEM serum-free medium. Alexa Fluor™ 680-BMPP uptake ability and Alexa Fluor™ 680-BMPP excretion ability of the leucocytes were measured using 400 μl each as described below.
40 μl of the Alexa Fluor™ 680-BMPP was added to 400 μl of the cell resuspension so that a final concentration of the Alexa Fluor™ 680-BMPP was 0.067 μM, and a reaction for uptake the Alexa Fluor™ 680-BMPP was performed by standing at room temperature for 30 minutes. A sample for measurement immediately after the uptake was added with BD FACS Lysing Solution immediately after the reaction to be hemolyzed and then, subjected to FACS. […] FACS analysis was performed in the same manner as described in the experimental example 2, and for each of neutrophils, monocytes, and lymphocytes, fluorescence intensities at each excretion time were compared each other.

[4] = system: leucocytes (neutrophils, monocytes, lymphocytes); assay: Uptake of fluorescence-labeled BMPP by leucocytes in whole blood (FACS); assay type: cell-based, human; settings: monocytes and lymphocytes, whole blood of healthy individual, 0.0074, 0.022, 0.067, 0.2 μM, room temperature 30 minutes
Procedure: Each 200 μl of whole blood collected from a healthy individual using a blood collection tube containing heparin was used as a sample. As a fluorescent-labeled BMPP-added group, the Alexa Fluor™ 680-BMPP prepared in the experimental example 1 was added to the samples so that a final concentration of the Alexa Fluor™ 680-BMPP was 0.0074 μM, 0.022 μM, 0.067 μM, and 0.2 μM, respectively. As a negative control group, Alexa Fluor™ 680 NHS Ester hydrolysate (hereinafter, simply referred to as Alexa Fluor™ 680) was added to the samples so that a final concentration of the Alexa Fluor™ 680 was 0.0074 μM, 0.022 μM, 0.067 μM, and 0.2 μM, respectively. […]
After the uptake is completed, 2 ml of BD FACS Lysing Solution (BD Biosciences) was added to the sample, and the mixture was allowed to stand at room temperature for 30 minutes to hemolyze erythrocytes, and then leucocytes were collected as precipitates by centrifugation at room temperature at 1500 rpm for 30 minutes, and resuspended in PBS to prepare a sample for FACS analysis. The FACS analysis was performed by preparing gates containing lymphocytes, monocytes, or neutrophils in advance by dot plots of forward-scattered light and side-scattered light using leucocytes prepared in the same manner without adding the Alexa Fluor™ 680-BMPP, and measuring the number of cells until […] cells were counted in the gate. […]

[5] = system: leucocytes (neutrophils, monocytes, lymphocytes); assay: Uptake and excretion of Alexa Fluor 680-BMPP by leucocytes of healthy individuals and primary TGCV patients (FACS); assay type: cell-based, human
Procedure: 5.5 ml of whole blood collected from healthy individuals and patients using the blood collection tube containing heparin was added with the leucocyte separating agent (HetaSep, Veritas Corporation) in an amount of one fifth of the whole blood, leucocytes were collected according to a manufacturer's instruction, and the cells were resuspended in 2.1 ml of DMEM medium without serum (hereinafter, DMEM serum-free medium). Alexa Fluor™ 680-BMPP uptake ability and Alexa Fluor™ 680-BMPP excretion ability of the leucocytes were measured using 400 μl each as described below.
40 μl of the Alexa Fluor™ 680-BMPP or 40 μl of the Alexa Fluor™ 680 was added to 400 μl of the cell resuspension so that a final concentration of the Alexa Fluor™ 680-BMPP or the Alexa Fluor™ 680 was 0.067 μM, and a reaction for uptake the fluorescence-labeled substance was performed by standing at room temperature for 30 minutes. A sample for measurement immediately after the uptake was added with BD FACS Lysing Solution immediately after the reaction to be hemolyzed and then, subjected to FACS. On the other hand, as for a sample for measurement of excretion, the Alexa Fluor™ 680-BMPP or the Alexa Fluor™ 680 was removed from the sample by centrifugation at room temperature, cells were resuspended in 500 μl of DMEM serum-free medium, and the cells were allowed to stand at 37° C. for 2 hours to be subjected to an excretion reaction of the taken Alexa Fluor™ 680-BMPP or Alexa Fluor™ 680, then BD FACS Lysing Solution was added, and the sample was subjected to FACS in the same manner as the sample immediately after the uptake. FACS analysis was performed in the same manner as described in the experimental example 2, and for each of neutrophils, monocytes, and lymphocytes, fluorescence intensity of the sample immediately after uptake was compared with fluorescence intensity of the sample for measurement of excretion.

Row | Molecule | ability for excreting the Alexa Fluor 680-BMPP in the patient after the treatment ([1]; case 1 patient leucocytes after tricaprin (MCT dietary therapy) treatment) | effect on triglyceride deposit-type atherosclerosis of the coronary artery (coronary CT) ([2]; case 1: genetic ATGL deficiency, 6 to 9 g per day, 50 days) | effect on triglyceride deposit-type atherosclerosis of the coronary artery (coronary CT) ([2]; case 2: refractory angina pectoris, 1.5 g per day, 4 years) | diameter of the blood flow site (coronary CT) ([2]; case 2, 1.5 g per day, 4 years) | ability for excreting the Alexa Fluor 680-BMPP compared to healthy individuals ([1]; leucocytes (neutrophils) of case 1 patient before the start of the treatment) | excretion time at which the taken Alexa Fluor 680-BMPP was sufficiently excreted (almost background) [3] | uptake amount of the Alexa Fluor 680-BMPP (shift of fluorescence intensity histogram) [4] | ability to excrete the Alexa Fluor 680-BMPP, primary TGCV patient versus healthy individuals ([5]; leucocytes, overall conclusion) | ability to excrete the Alexa Fluor 680-BMPP (leftward shift of fluorescence intensity) ([5]; lymphocytes of healthy individuals, 0.067 μM, excretion 37° C. 2 hours) | ability to excrete the Alexa Fluor 680-BMPP compared to healthy individuals ([5]; lymphocytes of primary TGCV patients, 0.067 μM, excretion 37° C. 2 hours) | ability to excrete the Alexa Fluor 680-BMPP (leftward shift of histogram) ([5]; neutrophils of healthy individuals, 0.067 μM, excretion 37° C. 2 hours) | ability to excrete the Alexa Fluor 680-BMPP compared to healthy individuals ([5]; neutrophils of primary TGCV patients, 0.067 μM, excretion 37° C. 2 hours)
1 | CCCCCCCCCC(=O)OCC(COC(=O)CCCCCCCCC)OC(=O)CCCCCCCCC [tricaprin] | restored to the same level as in healthy individuals | regression | regression | significantly increased |  |  |  |  |  |  |  | 
2 | 15-phenyl-3-methylpentadenoic acid labeled with Alexa Fluor™ 680 [Alexa Fluor™ 680-BMPP] |  |  |  |  | clearly reduced | 10 min | concentration dependent increase | lower | demonstrated | reduced | sufficiently demonstrated | clearly reduced
